Experimental data reported in PubChem BioAssay AID743034 (The Scripps Research Institute Molecular Screening Center, 2013).
Activity calls are given as the source filed them.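 How the source made its calls: active means half-life above 60 minutes with both human and mouse liver microsomes; inactive means half-life below 60 minutes in both species.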

Legend:
Pooled human microsomes = test: metabolic stability in hepatic microsomes – biochemical, LC-MS/MS, human and mouse microsomes, powder samples, ADME assay for V1a-R antagonist project, late-stage follow-up (AID 743034); settings: pooled human/mouse liver microsomes, at 1 µM, active compounds read high
Pooled mouse microsomes = test: as above; settings: pooled human/mouse liver microsomes, at 1 µM, active compounds read high

half-life (Pooled human microsomes): 23.8 min (inactive)
half-life (Pooled mouse microsomes): 7.8 min (inactive)
SMILES: O=C(C1CCN(c2ccc(Cl)cn2)CC1)N(CC1CC1)c1ccc(Cl)cc1
